Literature values in patent US20070119380A1, “Additive Composition for Feeding Aquaculture Animals and Feed Containing the Same” (priority 2003, published 2007).

How the values were obtained:
[1] = in whitefish flesh/muscle, fresh/wet sample
[2] = system: mice; conditions: interperitoneal and oral administration

Oc1ccc(Br)cc1 [4-bromophenol]
minimal amount (flavor threshold value) to produce a recognizable sensation [1]: 20 ng/g

Oc1c(Br)cc(Br)cc1Br [2,4,6-tribromophenol]
sub-lethal toxic effects [2]: no sub-lethal toxic effects
minimal amount (flavor threshold value) to produce a recognizable sensation [1]: 10 ng/g

Oc1c(Br)cccc1Br [2,6-dibromophenol]
minimal amount (flavor threshold value) to produce a recognizable sensation [1]: 0.1 ng/g

Oc1ccccc1Br [2-bromophenol]
sub-lethal toxic effects [2]: no sub-lethal toxic effects
minimal amount (flavor threshold value) to produce a recognizable sensation [1]: 10 ng/g

Oc1ccc(Br)cc1Br [2,4-dibromophenol]
minimal amount (flavor threshold value) to produce a recognizable sensation [1]: 50 ng/g
